pIC50: −log10 of the molar value. Where two headings read alike, the source gives them in different places.
Legend:
MMP-14/MT1-MMP = target: T1, MMP-14/MT1-MMP (Homo sapiens, UniProt P50281); test: MMP-14 OmniMMP peptide assay; assay type: biochemical
T1 construct: purchased R & D systems; host or cells: NS0 cells
Description: Compounds 5 and 7 were synthesized as previously reported. Full-length human proMMP-9 was produced by recombinant expression in Sf9 insect cells and purified by gelatin-Sepharose chromatography as previously described. Stable full-length proMMP-9 monomers and trimers were separated by glycerol gradient ultracentrifugation as previously described. ProMMP-9 mixture and the separated monomers and trimers were activated by incubation with the catalytic domain of MMP-3 (cat. No. 444217, Merck Millipore, Darmstadt, Germany) as previously described. Activation of proMMP-9 was confirmed by a band shift of ±10 kDa, corresponding to the removal of the auto-inhibitory propeptide domain and by detection of gelatinolytic activity with a previously described gelatin degradation assay. MMP-9 monomers and trimers purified from human neutrophils were purchased (Cat. No. 444,231 and 444232, Sigma-Aldrich, St. Louis, MO, USA). Examples of sample purities and activations can be found in Supplementary Figure S1. Recombinant human proMMP-2 (CHO cell-derived), proMMP-3 (NS0 cell-derived), proMMP-7 (NS0 cell-derived) and proMMP-8 (NS0 cell-derived) were purchased from R & D systems (Minneapolis, MN, USA), dissolved in assay buffer (150 mM NaCl, 5 mM CaCl2, 0.01% Tween-20, 50 mM Tris, pH 7.4) to a concentration of 100 µg/mL and activated by incubation with 1 mM p-aminophenylmercuric acetate for, respectively, 1h, 6h, 2h and 1h. Activation of MMPs was confirmed by a band shift of approximately 10 kDa, corresponding to the removal of the propeptide domain. MMP-14/MT1-MMP (NS0 cell-derived) was also purchased from R & D systems (Minneapolis, MN, USA) and activated by incubation with recombinant human furin (cat. No. 1503-SE-010, R & D systems, Minneapolis, MO, USA) in activation buffer (50 mM Tris, 1 mM CaCl2, 0.5% Brij-35, pH 9) for 1.5 h and activity was tested in assay buffer (50 mM Tris, 3 mM CaCl2, 1 µM ZnCl2, pH 8.5). […] ADAM17/TACE (Sf 21 (baculovirus)-derived, R & D systems, Minneapolis, MO, USA) was diluted and evaluated in 25 mM Tris, 2.5 μM ZnCl2, 0.005% Brij-35, pH 9.0. All stocks of the compounds were evaluated for the presence of endotoxin using the EndoZyme II assay (Hyglos bioMérieux, Bernried am Starnberger See, Germany). […]
To determine the inhibition of gelatinolytic activity, we used a previously optimized gelatin degradation assay. […] Next, dye-quenched gelatin (DQ™-gelatin, Invitrogen, Carlsbad, CA, USA) was added at a final concentration of 2.5 µg/mL and the increase in fluorescence over time was measured with the CLARIOstar microplate reader (BMG Labtech, Ortenberg, Germany). […] Proteolytic activity was determined by linear regression of the fluorescence curve and the percentage inhibition was calculated through comparison with the positive control (no inhibitors). […]

MMP-3 = target: T2, MMP-3 (Homo sapiens, UniProt P08254); test: MMP-3 OmniMMP peptide assay; assay type: biochemical; details: OmniMMP substrate peptide
T2 construct: purchased R & D systems; host or cells: NS0 cells
T2 sequence (P08254 100-477): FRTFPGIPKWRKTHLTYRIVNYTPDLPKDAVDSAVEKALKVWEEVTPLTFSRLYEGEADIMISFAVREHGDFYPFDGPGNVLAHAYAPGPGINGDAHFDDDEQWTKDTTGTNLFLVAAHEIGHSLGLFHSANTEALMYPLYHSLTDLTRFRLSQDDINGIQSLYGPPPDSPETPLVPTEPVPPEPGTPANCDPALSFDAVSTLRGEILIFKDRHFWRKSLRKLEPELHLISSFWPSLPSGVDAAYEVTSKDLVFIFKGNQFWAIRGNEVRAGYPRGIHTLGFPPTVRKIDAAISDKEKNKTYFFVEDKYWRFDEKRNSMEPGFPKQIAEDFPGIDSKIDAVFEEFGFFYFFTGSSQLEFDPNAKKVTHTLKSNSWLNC
Description: Compounds 5 and 7 were synthesized as previously reported. Full-length human proMMP-9 was produced by recombinant expression in Sf9 insect cells and purified by gelatin-Sepharose chromatography as previously described. Stable full-length proMMP-9 monomers and trimers were separated by glycerol gradient ultracentrifugation as previously described. ProMMP-9 mixture and the separated monomers and trimers were activated by incubation with the catalytic domain of MMP-3 (cat. No. 444217, Merck Millipore, Darmstadt, Germany) as previously described. […] ADAM17/TACE (Sf 21 (baculovirus)-derived, R & D systems, Minneapolis, MO, USA) was diluted and evaluated in 25 mM Tris, 2.5 μM ZnCl2, 0.005% Brij-35, pH 9.0. All stocks of the compounds were evaluated for the presence of endotoxin using the EndoZyme II assay (Hyglos bioMérieux, Bernried am Starnberger See, Germany). […]
To determine the inhibition of gelatinolytic activity, we used a previously optimized gelatin degradation assay. […] Next, dye-quenched gelatin (DQ™-gelatin, Invitrogen, Carlsbad, CA, USA) was added at a final concentration of 2.5 µg/mL and the increase in fluorescence over time was measured with the CLARIOstar microplate reader (BMG Labtech, Ortenberg, Germany). […]

[1] = target: T3, recombinant human MMP-9 mixture (± 70% monomers and ± 30% trimers) (Homo sapiens, UniProt P14780); test: Gelatin degradation assay, recombinant MMP-9 mixture; assay type: biochemical; details: recombinant human MMP-9 (Sf9) mix, best-fit value
T3 construct: made in house; host or cells: Sf9 insect cells
T3 sequence (P14780 107-707 limits assumed): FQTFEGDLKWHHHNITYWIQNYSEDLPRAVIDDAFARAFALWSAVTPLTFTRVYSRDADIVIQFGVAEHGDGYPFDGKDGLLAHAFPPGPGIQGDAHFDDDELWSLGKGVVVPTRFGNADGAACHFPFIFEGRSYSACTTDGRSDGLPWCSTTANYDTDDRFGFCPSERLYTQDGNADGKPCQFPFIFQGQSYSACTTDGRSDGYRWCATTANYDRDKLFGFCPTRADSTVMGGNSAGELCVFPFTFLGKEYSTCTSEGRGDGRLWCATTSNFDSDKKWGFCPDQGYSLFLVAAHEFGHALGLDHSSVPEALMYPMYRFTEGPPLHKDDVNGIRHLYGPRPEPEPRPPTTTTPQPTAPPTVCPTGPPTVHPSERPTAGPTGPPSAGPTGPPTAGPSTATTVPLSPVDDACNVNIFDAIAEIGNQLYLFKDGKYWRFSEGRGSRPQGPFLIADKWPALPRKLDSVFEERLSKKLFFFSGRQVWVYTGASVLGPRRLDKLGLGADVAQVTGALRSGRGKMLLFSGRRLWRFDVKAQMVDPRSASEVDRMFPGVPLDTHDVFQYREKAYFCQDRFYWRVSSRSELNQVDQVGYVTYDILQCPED
Description: (§1) Compounds 5 and 7 were synthesized as previously reported. Full-length human proMMP-9 was produced by recombinant expression in Sf9 insect cells and purified by gelatin-Sepharose chromatography as previously described. Stable full-length proMMP-9 monomers and trimers were separated by glycerol gradient ultracentrifugation as previously described. ProMMP-9 mixture and the separated monomers and trimers were activated by incubation with the catalytic domain of MMP-3 (cat. No. 444217, Merck Millipore, Darmstadt, Germany) as previously described. Activation of proMMP-9 was confirmed by a band shift of ±10 kDa, corresponding to the removal of the auto-inhibitory propeptide domain and by detection of gelatinolytic activity with a previously described gelatin degradation assay. MMP-9 monomers and trimers purified from human neutrophils were purchased (Cat. No. 444,231 and 444232, Sigma-Aldrich, St. Louis, MO, USA). Examples of sample purities and activations can be found in Supplementary Figure S1. Recombinant human proMMP-2 (CHO cell-derived), proMMP-3 (NS0 cell-derived), proMMP-7 (NS0 cell-derived) and proMMP-8 (NS0 cell-derived) were purchased from R & D systems (Minneapolis, MN, USA), dissolved in assay buffer (150 mM NaCl, 5 mM CaCl2, 0.01% Tween-20, 50 mM Tris, pH 7.4) to a concentration of 100 µg/mL and activated by incubation with 1 mM p-aminophenylmercuric acetate for, respectively, 1h, 6h, 2h and 1h. Activation of MMPs was confirmed by a band shift of approximately 10 kDa, corresponding to the removal of the propeptide domain. MMP-14/MT1-MMP (NS0 cell-derived) was also purchased from R & D systems (Minneapolis, MN, USA) and activated by incubation with recombinant human furin (cat. No. 1503-SE-010, R & D systems, Minneapolis, MO, USA) in activation buffer (50 mM Tris, 1 mM CaCl2, 0.5% Brij-35, pH 9) for 1.5 h and activity was tested in assay buffer (50 mM Tris, 3 mM CaCl2, 1 µM ZnCl2, pH 8.5). Active human neutrophil elastase (NE) was purchased from Abcam (Cambridge, UK) and for activity assays of NE the assay buffer was replaced by 200 mM Tris, pH 8.8. ADAM17/TACE (Sf 21 (baculovirus)-derived, R & D systems, Minneapolis, MO, USA) was diluted and evaluated in 25 mM Tris, 2.5 μM ZnCl2, 0.005% Brij-35, pH 9.0. All stocks of the compounds were evaluated for the presence of endotoxin using the EndoZyme II assay (Hyglos bioMérieux, Bernried am Starnberger See, Germany). Endotoxin levels in all concentrated stocks (2.5 mg/mL) were below the accepted limit of 0.5 EU/mL.
(§2) To determine the inhibition of gelatinolytic activity, we used a previously optimized gelatin degradation assay. Activated MMP-9, activated MMP-2, neutrophil elastase or supernatants of stimulated neutrophils, were incubated with different concentrations of inhibitors and incubated for 30 min at 37 °C. Next, dye-quenched gelatin (DQ™-gelatin, Invitrogen, Carlsbad, CA, USA) was added at a final concentration of 2.5 µg/mL and the increase in fluorescence over time was measured with the CLARIOstar microplate reader (BMG Labtech, Ortenberg, Germany). For other MMPs, the OmniMMP substrate peptide (Mca-PLGL-Dpa-AR-NH2, cat. no. BML-P126-0001, Enzo Life Sciences, Farmingdale, NY, USA) was used at a final concentration of 2.5 µg/mL. For ADAM17 the fluorogenic peptide Mca-PLAQAV-Dpa-RSSSR-NH2 (ES003, R & D systems, Minneapolis, MO, USA) and for neutrophil elastase the fluorogenic substrate MeOSuc-AAPV-AMC (cat. no. 324740, Merck Millipore, Darmstadt, Germany) were used. Proteolytic activity was determined by linear regression of the fluorescence curve and the percentage inhibition was calculated through comparison with the positive control (no inhibitors). When testing supernatants from human neutrophils, the assay was performed in the presence of 20 µM neutrophil elastase inhibitor (Elastase Inhibitor IV, Calbiochem, Darmstadt, Germany).

[2] = target: T4, human neutrophil-derived MMP-9 trimers (Homo sapiens, UniProt P14780); test: Gelatin degradation assay, neutrophil-derived MMP-9 trimers; assay type: biochemical; details: for IC25 / pIC50 / IC75: MMP-9 isolated from human neutrophils, tri, gelatin degradation
T4 construct: purchased Sigma-Aldrich 444232; host or cells: human neutrophils (natural protein)
T4 sequence (P14780 107-707 limits assumed): as above
Description: as §1, §2

[3] = target: T5, recombinant human MMP-9 monomers (Homo sapiens, UniProt P14780); test: Gelatin degradation assay, recombinant MMP-9 monomers; assay type: biochemical; details: recombinant human MMP-9 (Sf9) mono
T5 construct: made in house; host or cells: Sf9 insect cells
T5 sequence (P14780 107-707 limits assumed): as above
Description: as §1, §2

U-87 cell line = test: U-87 cell viability (LIVE/DEAD); assay type: cell-based; details: up to a concentration of 20 µM; 17 h
Description: Toxicity of compounds 5 and 7 was evaluated in vitro on the U-87 cell line. Briefly, U-87 cells were seeded in 96-well plates (cat. No. 92096, TPP Techno Plastic Products, Trasadingen, Switzerland) at 2000 cells/well in DMEM FluoroBrite containing 10% FBS and incubated for 24 h. Cells were washed and further grown in DMEM FluoroBrite with 5% KnockOut™ Serum Replacement (Gibco, Waltham, MA, USA). Compounds 5 and 7 were added to the wells in a 1:2 dilution series starting at 20 µM and ending at 0.16 µM. To evaluate the effect of the compound on cell growth, confluence was determined every hour for 17h using the Incucyte® S3 Live-Cell Analysis System (Sartorius, Göttingen, Germany). Next, cells were stained with the LIVE/DEAD™ Viability/Cytotoxicity Kit for mammalian cells (Invitrogen, Carlsbad, CA, USA; cat. # L3224) and cell viability was evaluated. Data were normalized to the mean confluence of wells containing no inhibitors. To measure the stability of the compounds, fresh blood was collected from heathy mice by cardiac puncture with a heparin-coated needle and syringe and 30UI/mL heparin was added. Next, compound 5, compound 7 or vehicle (DMSO) was added to the blood at a final concentration of 500 µM and incubated at 37 °C. […] Background inhibition was subtracted and results were expressed as percentage inhibition.

Structure (SMILES): CC(C)[C@H](C(=O)O)N(CCNC(=O)c1cccc(C(=O)NCCN([C@@H](C(=O)O)C(C)C)S(=O)(=O)c2ccc(-c3ccccc3)cc2)c1)S(=O)(=O)c1ccc(-c2ccccc2)cc1 [Compound 7]
- pIC50 (MMP-14/MT1-MMP): < 6.00
- pIC50 (MMP-14/MT1-MMP; OmniMMP substrate peptide): 5.97
- pIC50 (MMP-3): 8.11
- IC25 [1]: 28 nM
- pIC50 [1]: 6.74
- IC75 [1]: 0.627 µM
- IC25 [2]: 0.008 nM
- pIC50 [2]: 10.18
- IC75 [2]: 0.0006 µM
- fold difference between monomeric and trimeric MMP-9 ([2]; MMP-9 purified from human neutrophils, gelatin substrate): 650 fold
- IC25 [3]: 48 nM
- pIC50 [3]: 6.72
- IC75 [3]: 0.754 µM
- cellular toxicity (cell viability of U-87 cells) (U-87 cell line): nor did they induce cellular toxicity

Structure (SMILES): CC(C)[C@H](C(=O)O)N(CCNC(=O)c1ccccc1)S(=O)(=O)c1ccc(-c2ccccc2)cc1 [Compound 5]
- pIC50 (MMP-14/MT1-MMP): < 6.00
- pIC50 (MMP-14/MT1-MMP; OmniMMP substrate peptide): 4.83
- pIC50 (MMP-3): 6.02
- IC25 [1]: 359 nM
- pIC50 [1]: 5.85
- IC75 [1]: 5.509 µM
- IC25 [2]: 479 nM
- pIC50 [2]: 5.37
- IC75 [2]: 17.212 µM
- IC25 [3]: 392 nM
- pIC50 [3]: 5.82
- IC75 [3]: 5.859 µM
- cellular toxicity (cell viability of U-87 cells) (U-87 cell line): nor did they induce cellular toxicity

— article PMC7408547, “Bivalent Inhibitor with Selectivity for Trimeric MMP-9 Amplifies Neutrophil Chemotaxis and Enables Functional Studies on MMP-9 Proteoforms” (Cells, 2020)
